Holding throughout (assay): NCI-60 cell line screen, 48 h
Experiment [1] concerns NCI/ADR-RES ovarian.
For experiment [2], the system named is ACHN renal.
The test system of experiment [3] is UACC-62 melanoma.
Experiment [4] concerns SK-OV-3 ovarian.
In experiment [5] the test system is SK-MEL-5 melanoma.
The test system of experiment [6] is OVCAR-5 ovarian.
Experiment [7] concerns NCI-H522 lung.
Experiment [8] relates to MDA-MB-231 breast.
Experiment [9] relates to CAKI-1 renal.
The test system of experiment [10] is UACC-257 melanoma.
Experiment [11] concerns EKVX NSCLC.
For experiment [12], the system named is UO-31 renal.
Experiment [13] concerns MCF7 breast.
In experiment [14] the test system is SK-MEL-2 melanoma.
In experiment [15] the test system is T-47D breast.
The test system of experiment [16] is HOP-92 NSCLC.
Experiment [17] deals with TK-10 renal.
The subject of experiment [18] is 786-0 renal.
The test system of experiment [19] is OVCAR-3 ovarian.
The test system of experiment [20] is HS 578T breast.
Experiment [21] deals with A498 renal.
For experiment [22], the system named is SF-295 CNS.
For experiment [23], the system named is KM12 colon.
For experiment [24], the system named is MALME-3M melanoma.
In experiment [25] the test system is HOP-62 NSCLC.
Experiment [26] relates to BT-549 breast.
For experiment [27], the system named is LOX IMVI melanoma.
The subject of experiment [28] is M14 melanoma.
Experiment [29] deals with K-562 leukemia.
In experiment [30] the test system is PC-3 prostate.
Experiment [31] relates to SF-268 CNS.
Experiment [32] deals with RPMI-8226 leukemia.
Experiment [33] deals with NCI-H460 lung.
The test system of experiment [34] is OVCAR-4 ovarian.
The test system of experiment [35] is SF-539 CNS.
In experiment [36] the test system is HCC-2998 colon.
Experiment [37] has as its system NCI-H226 lung.
Experiment [38] has as its system DU-145 prostate.
Experiment [39] relates to SN12C renal.
Experiment [40] relates to U251 CNS.
The subject of experiment [41] is SK-MEL-28 melanoma.
The subject of experiment [42] is MDA-MB-435.
Experiment [43] concerns MOLT-4 leukemia.
For experiment [44], the system named is HCT-15 colon.
The test system of experiment [45] is RXF 393 renal.
Experiment [46] has as its system SW-620 colon.
The subject of experiment [47] is OVCAR-8 ovarian.
The test system of experiment [48] is IGROV1 ovarian.
Experiment [49] concerns SNB-19 CNS.
The subject of experiment [50] is HCT-116 colon.
Experiment [51] concerns COLO 205 colon.

Where “and” joins values, the source holds several entries; their conditions need not be identical. Equal values may be shown once.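 Following 48 hours of exposure in 96-well plates, responses at five concentrations were used to interpolate endpoints linearly. Abbreviation: GI50, concentration required for 50% inhibition of growth. TGI: total growth inhibition.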

Consider `Cc1cc2c(cc1C)[n+](Cc1ccc3ccccc3c1)cn2Cc1ccc2ccccc2c1`, for which the GI50 in experiment [1] is 6.6 µM; in [2], 1.65 µM; in experiment [3], 0.459 µM; in [4], 1.5 µM; in [5] it was 1.05 µM; in experiment [6] it was 1.13 µM. In addition, the TGI in experiment [1] turned out to be 64.4 µM; in [2], 3.08 µM; in [3], 1.79 µM; in experiment [4], 2.9 µM; in [5], 2.23 µM; in experiment [6] it was 2.43 µM.
For the compound `O=c1cc(-c2ccccc2)[nH]c2ccc(N3CCOCC3)cc12`, the TGI in experiment [7] is 0.404 µM; in experiment [8], > 100 µM; in experiment [1], > 100 µM; in [9], > 89.2 µM; in [10], > 100 µM; in [2] it was > 91 µM. Also, the TGI was > 100 µM in [11]; > 100 µM in experiment [12]; > 93.5 µM in experiment [13]; > 100 µM in [14]; > 100 µM in experiment [15]; 44.1 µM in experiment [16]. The TGI in [17] was > 100 µM; in experiment [18], 38.1 µM; in experiment [19] it was 39.2 µM; in [3], > 100 µM; in [20] it was > 100 µM; in experiment [21], 73.5 µM. Also, the TGI in experiment [22] is 0.0773 µM; in experiment [23], 0.446 µM; in [24], > 100 µM; in experiment [25] it was 28.2 µM; in experiment [26] it was > 100 µM; in experiment [27] it was > 100 µM. Moreover, the TGI was > 79.2 µM in experiment [28]; > 100 µM in [29]; > 100 µM in [30]; 15.8 µM in [31]; > 100 µM in experiment [32]; > 100 µM in [33]. In addition, the TGI was 22.4 µM in experiment [4]; > 100 µM in experiment [34]; 0.615 µM in [35]; 14.3 µM in experiment [5]; > 100 µM in experiment [36]; 0.253 µM in [37]. In addition, the TGI is > 32.9 µM in experiment [38]; > 95.3 µM in experiment [39]; > 35.8 µM in experiment [40]; > 100 µM in experiment [6]; 44.7 µM in experiment [41]; > 100 µM in experiment [42]. Moreover, the TGI in experiment [43] was > 100 µM; in experiment [44] it was > 100 µM; in [45], 46.5 µM; in [46], > 100 µM; in [47], > 100 µM; in experiment [48], > 100 µM. Besides, the TGI is > 87.5 µM in experiment [49] and > 100 µM in experiment [50].
On to `O=C1NC2C(CC(O)C(O)C2O)c2cc3c(c(O)c21)OCO3` (centres undefined), for which, in experiment [51], the GI50 is 0.0255 µM and < 0.01 µM; the TGI was 0.127 µM and 0.0156 µM.

Source of the values: PubChem BioAssay (NCI).
